Results on three compounds are retold here after patent US9968089B2, “Microbicidal composition” (Dow Global Technologies LLC, priority 2013, dated 2018).

Assay in all cases: MIC and synergy index test in 96 well microtiter plates
What all share (format): cell-based

The test system of test [1] is Pseudomonas aeruginosa ATCC #15442. Conditions: 1/10 TSB. The protocol: Surfactants and biocides were evaluated for synergy by determining the synergy index (S.I.) of the combination. Synergy index was calculated based on minimum inhibitory concentrations (MIC) of two antimicrobial compounds (A and B) alone and in combinations. The tests organisms were Gram negative bacteria (Pseudomonas aeruginosa ATCC #15442), Gram positive bacteria (Staphylococcus aureus ATCC #6538), yeast (Candida albicans ATCC#10203) and mold (Aspergillus niger ATCC#16404). […] The test was carried out in 96 well microtiter plates. • Surf. A R^1O(CH2CH(CH3)O)5(CH2CH2O)9H, where R^1 is 2-ethylhexyl • Surf. D R^2O(CH2CH(CH3)O)3(CH2CH2O)5H • Surf. E R^2O(CH2CH(CH3)O)3(CH2CH2O)7H • In Surf. D and Surf. E, R^2 is a mixture of C8-C14 linear alkyl groups (70% C8-C10 linear alkyl and 30% C12-C14 linear alkyl)
(§1) The pH of the Triptic soy broth was 7.3 and the Potato dextrose broth was 5.1.
(§2) SI is calculated as follows: Ca/CA+Cb/CB=Synergy Index(“SI”)
(§3) Wherein: • CA=concentration of compound A in ppm, acting alone, which produced an end point (MIC of Compound A). • Ca=concentration of compound A in ppm, in the mixture, which produced an end point. • CB=concentration of compound B in ppm, acting alone, which produced an end point (MIC of Compound B). • Cb=concentration of compound B in ppm, in the mixture, which produced an end point.
(§4) When the sum of Ca/CA and Cb/CB is greater than one, antagonism is indicated.

Test [2] has as its system Candida albicans ATCC#10203. Conditions: PDB. The procedure: (§5) Surfactants and biocides were evaluated for synergy by determining the synergy index (S.I.) of the combination. Synergy index was calculated based on minimum inhibitory concentrations (MIC) of two antimicrobial compounds (A and B) alone and in combinations. The tests organisms were Gram negative bacteria (Pseudomonas aeruginosa ATCC #15442), Gram positive bacteria (Staphylococcus aureus ATCC #6538), yeast (Candida albicans ATCC#10203) and mold (Aspergillus niger ATCC#16404). Contact time for the bacteria was 24 and 48 hours, yeast was 48 and 72 hrs, and 3 and 7 days for mold. The test was carried out in 96 well microtiter plates. • Surf. A R^1O(CH2CH(CH3)O)5(CH2CH2O)9H, where R^1 is 2-ethylhexyl • Surf. D R^2O(CH2CH(CH3)O)3(CH2CH2O)5H • Surf. E R^2O(CH2CH(CH3)O)3(CH2CH2O)7H • In Surf. D and Surf. E, R^2 is a mixture of C8-C14 linear alkyl groups (70% C8-C10 linear alkyl and 30% C12-C14 linear alkyl)
as §1, §2, §3, §4

Test [3] deals with Staphylococcus aureus ATCC #6538. The settings on record: ATCC6538, 24 h. The procedure:
as §5, §1, §2, §3, §4

The subject of test [4] is Aspergillus niger ATCC#16404. Conditions: PDB. The protocol: as §5, §1, §2, §3, §4

Where two headings read alike, the source gives them in different places.

For the compound `Cl/C=C\C[N+]12CN3CN(CN(C3)C1)C2.[Cl-]` [CTAC, cis-1-(3-chloroallyl)-3,5,7-triaza-1-azoniaadamantane chloride], the MIC in test [1] (ATCC15442, 72 h, A: Surf. A, B: CTAC, P. aeruginosa ATCC#15442, 3rd Day, inoculum 1.156E+06, read-out: CB (MIC of compound B acting alone)) worked out at 600 µg/mL; in test [2] (ATCC10203, 48 h, A: Surf. D, B: CTAC, C. albicans ATCC#10203, 48 hrs, inoculum 5.726E+05 CFU/ml, read-out: CB (MIC of compound B acting alone)) it was 1000 µg/mL; in test [2] (ATCC10203, 48 h, A: Surf. E, B: CTAC, C. albicans ATCC 10203, 48 hrs, inoculum 1.808E+05, read-out: CB (MIC of compound B acting alone)), 3000 µg/mL; in test [3] (A: Surf. D, B: CTAC, S. aureus ATCC# 6538, 24 hrs, 1/10 TSB, inoculum 1.808E+05, read-out: CB (MIC of compound B acting alone)), 300 µg/mL; in test [3] (A: Surf. E, B: CTAC, S. aureus ATCC# 6538, 24 hrs, 1/10 TSB, inoculum 1.8E+06, read-out: CB (MIC of compound B acting alone)), 200 µg/mL; in test [4] (ATCC16404, A: Surf. D, B: CTAC, A. niger ATCC#16404, 3rd day, inoculum 1.156E+06, read-out: CB (MIC of compound B acting alone)), 1000 µg/mL.

On to `O=[N+]([O-])C(CO)(CO)CO` [Tris Nitro, tris(hydroxymethyl)nitromethane], for which the MIC was 800 µg/mL in test [1] (ATCC15442, 24 h, A: Surf. D, B: TrisNitro, Ps. aeruginosa ATCC#15442, 24 hrs, inoculum 1.16E+08, read-out: CB (MIC of compound B acting alone)); 1000 µg/mL in test [1] (ATCC15442, 24 h, A: Surf. E, B: TrisNitro, Ps. aeruginosa ATCC#15442, 24 hrs, inoculum 5.727E+07 CFU/ml, read-out: CB (MIC of compound B acting alone)); 500 µg/mL in test [3] (A: Surf. E, B: TrisNitro, S. aureus ATCC# 6538, 24 hrs, 1/10 TSB, inoculum 1.808E+06 CFU/ml, read-out: CB (MIC of compound B acting alone)).

Regarding `CC1(C)COCN1` [DMO, 4,4-dimethyloxazolidine], the MIC in test [1] (ATCC15442, 24 h, A: Surf. A, B: DMO, P. aeruginosa ATCC#15442, 24 hrs, inoculum 8.134+07 CFU/ml, read-out: CB (MIC of compound B acting alone)) came to 80 µg/mL; in test [2] (ATCC10203, 48 h, A: Surf. E, B: DMO, C. albicans ATCC#10203, 48 hrs, inoculum 1808E+06, read-out: CB (MIC of compound B acting alone)), 1000 µg/mL; in test [2] (ATCC 10203 / ATCC 10231, 48 h, A: Surf. D, B: DMO, C. albicans ATCC#10231, 48 hrs, inoculum 5.726E+05 CFU/ml, read-out: CB (MIC of compound B acting alone)), 1000 µg/mL; in test [2] (ATCC 10203 / ATCC 10231, A: Surf. A, B: DMO, C. albicans ATCC#10231, 3rd Day, inoculum 1.156E+06 CFU/ml, read-out: CB (MIC of compound B acting alone)), 1000 µg/mL; in test [3] (A: Surf. D, B: 1135, S. aureus ATCC#6538, 24 hrs, 1/10 TSB, inoculum 1.16E+08, read-out: CB (MIC of compound B acting alone)), 80 µg/mL; in test [3] (A: Surf. E, B: DMO, ATCC# 6538, 24 hrs, 1/10 TSB, inoculum 1.80E+06 CFU/ml, read-out: CB (MIC of compound B acting alone)), 80 µg/mL. The minimal inhibitory concentration (MIC) in test [3] (read-out: CB (MIC of compound B acting alone)) came out at 50 µg/mL; in test [4] (ATCC16404, A: Surf. A, B: DMO, A. niger ATCC#16404, 3rd Day, inoculum 1.156E+06 CFU/ml, read-out: CB (MIC of compound B acting alone)), 60 µg/mL; in test [4] (ATCC16404, A: Surf. D, B: DMO, A. niger ATCC# 16404, 3rd day, inoculum 1.156E+06, read-out: CB (MIC of compound B acting alone)), 400 µg/mL; in test [4] (ATCC16404, A: Surf. E, B: DMO, A. niger ATCC#16404, 3rd Day, inoculum 1.56E+06 CFU/ml, read-out: CB (MIC of compound B acting alone)), 800 µg/mL.
